Columns and labels:
Assay type in all cases: cell-based
ABCA4 P1380L = biological target: T1, ABCA4 P1380L (Homo sapiens, UniProt P78363, P1380L); test: A4 correction dose-response assay: ABCA4 P1380L HiBit protein expression; conditions: HEK-293 cells stably expressing HiBit-tagged ABCA4 P1380L; 24 h treatment; top concentration 30 μM; read-out: ABCA4 P1380L EC50, Emax
T1 construct: expressed in transfected cells
Protocol: Exemplary compounds were evaluated in an A4 correction dose-response assay.
To assess activity against ABCA4 P1380L, the compounds were screened in an assay measuring protein expression, using cells transfected with cDNA encoding HiBit-tagged ABCA4 P1380L. Here we describe an assay for measuring the expression of the P1380L variant of human ABCA4 (henceforth referred to as ABCA4 P1380L) and the use of this assay to measure the efficacy of compounds to increase the expression of ABCA4 P1380L. The assay was designed to characterize the efficacy and potency of compounds to increase the expression of ABCA4 P1380L by calculating an Emax and EC50 value. […] (5% CO2, humidified). […] After the four-hour incubation period, 60 nL of DMSO solutions are transferred to the assay plate.
Dose response curves include eleven doses with the top final concentration at 30 μM in 0.3% DMSO. Liquid handling is performed with ECHO 550 Acoustic Liquid Handler (Labcyte). After addition of compound treatment, cells are incubated for 24 hours at 37° C. (5% CO2, humidified). After the 24-hour treatment, plates are allowed to equilibrate to room temperature for 10 minutes. Using Dragonfly Automated Liquid Handler (TTP LabTech), 20 μl of HiBit lytic assay reagent (Promega, product #N3040), which is prepared according to manufacturer's instructions, is added to each well. The plates are rotated at room temperature for 2 minutes and incubated for 1 hour at 25° C. before luminescent signal is acquired using an EnVision Multimode Plate Reader (PerkinElmer).

ABCB4 WT = biological target: T2, ABCB4 WT (Homo sapiens, UniProt P21439); test: ABCB4 WT assay: HiBit protein expression; conditions: HEK-293 cells stably expressing HiBit-tagged ABCB4 WT; 24 h treatment; top concentration 30 μM; read-out: ABCB4 WT EC50, Emax
T2 construct: expressed in transfected cells
T2 sequence (P21439 whole entry): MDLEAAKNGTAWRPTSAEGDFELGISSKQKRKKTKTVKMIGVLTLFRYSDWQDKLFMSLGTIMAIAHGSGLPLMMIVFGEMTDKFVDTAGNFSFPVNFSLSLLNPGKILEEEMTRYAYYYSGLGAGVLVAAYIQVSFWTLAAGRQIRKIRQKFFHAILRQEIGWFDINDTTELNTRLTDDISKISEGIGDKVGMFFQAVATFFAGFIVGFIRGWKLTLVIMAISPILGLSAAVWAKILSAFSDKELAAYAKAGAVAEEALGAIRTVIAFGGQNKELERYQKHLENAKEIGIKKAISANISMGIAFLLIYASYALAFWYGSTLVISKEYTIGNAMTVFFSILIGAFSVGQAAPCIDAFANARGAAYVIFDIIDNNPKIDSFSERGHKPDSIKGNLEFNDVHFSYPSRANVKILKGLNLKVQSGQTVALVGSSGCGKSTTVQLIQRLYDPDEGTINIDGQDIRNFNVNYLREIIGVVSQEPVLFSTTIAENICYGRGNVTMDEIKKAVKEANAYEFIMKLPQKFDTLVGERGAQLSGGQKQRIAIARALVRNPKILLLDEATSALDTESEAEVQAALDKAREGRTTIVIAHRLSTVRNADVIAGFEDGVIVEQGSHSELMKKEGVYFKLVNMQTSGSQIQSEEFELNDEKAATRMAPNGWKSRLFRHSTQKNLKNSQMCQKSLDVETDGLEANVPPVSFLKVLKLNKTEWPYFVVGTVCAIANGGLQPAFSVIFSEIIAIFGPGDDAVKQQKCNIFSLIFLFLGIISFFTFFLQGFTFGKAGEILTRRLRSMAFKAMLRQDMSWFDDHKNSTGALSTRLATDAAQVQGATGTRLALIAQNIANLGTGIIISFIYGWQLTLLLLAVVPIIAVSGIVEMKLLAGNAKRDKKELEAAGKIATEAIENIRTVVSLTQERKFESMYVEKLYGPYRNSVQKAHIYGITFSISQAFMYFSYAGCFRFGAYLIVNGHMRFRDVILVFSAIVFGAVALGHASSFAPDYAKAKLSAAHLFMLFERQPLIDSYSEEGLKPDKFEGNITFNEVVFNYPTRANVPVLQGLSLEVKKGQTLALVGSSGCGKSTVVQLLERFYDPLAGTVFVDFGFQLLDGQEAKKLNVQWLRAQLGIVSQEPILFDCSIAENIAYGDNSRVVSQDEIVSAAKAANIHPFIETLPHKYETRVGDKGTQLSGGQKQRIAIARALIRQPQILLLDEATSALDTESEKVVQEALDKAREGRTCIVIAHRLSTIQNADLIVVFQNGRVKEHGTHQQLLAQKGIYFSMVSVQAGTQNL
Method in brief: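 HEK-293 cells stably expressing HiBit-tagged human ABCB4 WT, treated 24 h at 37 °C with 11-dose 3-fold dilutions, top final 30 μM in 0.3% DMSO. HiBit lytic reagent luminescence read after 1 h at 25 °C; Emax and EC50 derived.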

ABCD2 WT = biological target: T3, ABCD2 WT (Homo sapiens, UniProt Q9UBJ2); test: D2 correction dose-response assay: ABCD2 WT HiBit protein expression; conditions: HEK-293/ABCD2 WT cells, 24 hours treatment, HiBit luminescence; class combines EC50 and Mean MaxAct (fold); read-out: ABCD2 WT EC50, Emax
T3 construct: expressed in transfected cells
T3 sequence (Q9UBJ2 1-740): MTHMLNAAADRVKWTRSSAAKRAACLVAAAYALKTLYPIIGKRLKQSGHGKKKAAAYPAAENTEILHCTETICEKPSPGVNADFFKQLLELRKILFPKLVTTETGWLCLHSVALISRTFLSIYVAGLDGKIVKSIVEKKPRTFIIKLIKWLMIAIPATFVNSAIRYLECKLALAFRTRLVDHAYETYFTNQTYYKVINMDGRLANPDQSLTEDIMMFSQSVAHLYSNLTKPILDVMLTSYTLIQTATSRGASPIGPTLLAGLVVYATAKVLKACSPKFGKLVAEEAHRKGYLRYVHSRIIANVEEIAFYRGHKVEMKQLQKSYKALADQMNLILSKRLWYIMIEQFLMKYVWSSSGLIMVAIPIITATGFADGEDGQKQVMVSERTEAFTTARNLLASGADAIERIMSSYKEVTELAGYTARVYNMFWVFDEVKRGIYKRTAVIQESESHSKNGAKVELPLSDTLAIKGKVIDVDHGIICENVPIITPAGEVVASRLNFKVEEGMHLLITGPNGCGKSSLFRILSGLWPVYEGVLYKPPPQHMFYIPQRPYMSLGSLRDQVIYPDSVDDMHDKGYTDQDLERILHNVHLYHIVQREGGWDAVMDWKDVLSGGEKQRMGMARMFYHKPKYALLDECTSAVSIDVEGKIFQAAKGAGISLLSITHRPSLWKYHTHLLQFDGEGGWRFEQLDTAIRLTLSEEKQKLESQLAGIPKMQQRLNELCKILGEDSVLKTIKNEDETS
Method in brief: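 HEK-293 cells stably expressing HiBit-tagged human ABCD2 WT were treated with 11 doses (3-fold dilutions, top final 30 μM, 0.3% DMSO) for 24 h at 37 °C. Expression was measured by HiBit lytic luminescence after 1 h at 25 °C, giving EC50 and Emax.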

T1 sequence (P78363 whole entry P1380L): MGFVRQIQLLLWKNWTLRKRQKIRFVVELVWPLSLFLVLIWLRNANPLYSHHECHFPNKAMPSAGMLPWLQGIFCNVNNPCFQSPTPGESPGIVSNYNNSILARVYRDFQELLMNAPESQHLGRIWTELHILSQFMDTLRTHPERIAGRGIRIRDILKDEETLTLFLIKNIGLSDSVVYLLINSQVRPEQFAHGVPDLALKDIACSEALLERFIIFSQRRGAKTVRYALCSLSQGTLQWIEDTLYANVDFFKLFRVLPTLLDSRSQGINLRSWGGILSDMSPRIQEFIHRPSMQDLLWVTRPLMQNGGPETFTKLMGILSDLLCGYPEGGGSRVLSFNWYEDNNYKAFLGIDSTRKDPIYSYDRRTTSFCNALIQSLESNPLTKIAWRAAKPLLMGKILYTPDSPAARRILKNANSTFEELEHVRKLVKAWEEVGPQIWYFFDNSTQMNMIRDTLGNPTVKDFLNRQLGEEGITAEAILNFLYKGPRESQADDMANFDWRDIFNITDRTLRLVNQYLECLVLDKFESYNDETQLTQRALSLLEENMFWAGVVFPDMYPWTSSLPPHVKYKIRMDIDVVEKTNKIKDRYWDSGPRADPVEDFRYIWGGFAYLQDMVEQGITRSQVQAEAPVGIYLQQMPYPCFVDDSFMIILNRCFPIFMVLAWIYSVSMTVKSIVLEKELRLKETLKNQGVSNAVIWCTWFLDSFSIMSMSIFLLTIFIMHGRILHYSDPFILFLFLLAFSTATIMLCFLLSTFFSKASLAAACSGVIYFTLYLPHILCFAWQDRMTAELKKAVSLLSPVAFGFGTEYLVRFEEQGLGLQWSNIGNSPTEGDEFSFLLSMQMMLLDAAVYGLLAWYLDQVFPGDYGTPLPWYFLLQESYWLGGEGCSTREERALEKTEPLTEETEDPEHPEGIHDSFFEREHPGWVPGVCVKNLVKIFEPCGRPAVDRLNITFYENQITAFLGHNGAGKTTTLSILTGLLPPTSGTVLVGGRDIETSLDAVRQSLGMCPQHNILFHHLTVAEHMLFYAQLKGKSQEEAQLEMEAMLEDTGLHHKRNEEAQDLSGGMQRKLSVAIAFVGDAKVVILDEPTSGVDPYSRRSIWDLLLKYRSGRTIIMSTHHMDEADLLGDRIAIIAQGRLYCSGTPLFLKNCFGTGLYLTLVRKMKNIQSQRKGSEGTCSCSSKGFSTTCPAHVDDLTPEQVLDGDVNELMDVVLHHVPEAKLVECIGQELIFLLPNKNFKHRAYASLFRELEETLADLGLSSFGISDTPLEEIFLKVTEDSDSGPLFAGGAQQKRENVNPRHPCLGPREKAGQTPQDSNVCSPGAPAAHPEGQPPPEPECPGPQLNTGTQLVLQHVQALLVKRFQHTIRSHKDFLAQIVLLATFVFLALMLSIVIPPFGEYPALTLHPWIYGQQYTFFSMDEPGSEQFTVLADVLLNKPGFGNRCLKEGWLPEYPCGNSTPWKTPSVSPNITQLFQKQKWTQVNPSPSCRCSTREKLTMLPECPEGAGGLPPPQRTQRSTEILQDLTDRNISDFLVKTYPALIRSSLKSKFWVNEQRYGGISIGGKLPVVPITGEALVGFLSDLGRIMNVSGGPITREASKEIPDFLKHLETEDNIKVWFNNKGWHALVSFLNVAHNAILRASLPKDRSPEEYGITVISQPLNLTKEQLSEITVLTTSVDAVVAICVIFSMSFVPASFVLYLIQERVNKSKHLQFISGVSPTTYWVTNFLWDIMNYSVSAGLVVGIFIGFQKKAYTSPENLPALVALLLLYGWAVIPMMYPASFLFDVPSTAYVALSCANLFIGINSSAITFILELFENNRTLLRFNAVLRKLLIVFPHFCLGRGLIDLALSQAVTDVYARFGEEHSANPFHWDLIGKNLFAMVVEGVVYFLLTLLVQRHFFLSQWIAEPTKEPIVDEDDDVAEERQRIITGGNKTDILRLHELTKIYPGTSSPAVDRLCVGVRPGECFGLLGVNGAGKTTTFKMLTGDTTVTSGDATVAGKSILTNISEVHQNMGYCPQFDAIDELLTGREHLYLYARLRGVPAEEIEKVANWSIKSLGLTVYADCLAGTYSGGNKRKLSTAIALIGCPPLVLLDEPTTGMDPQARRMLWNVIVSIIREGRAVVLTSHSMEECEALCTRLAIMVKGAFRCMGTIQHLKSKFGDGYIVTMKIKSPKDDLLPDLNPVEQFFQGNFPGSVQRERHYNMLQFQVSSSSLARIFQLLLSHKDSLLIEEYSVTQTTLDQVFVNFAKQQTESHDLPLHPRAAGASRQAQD

Structure (SMILES)	EC50 (ABCA4 P1380L) [µM]	EC50 (ABCB4 WT) [µM]	EC50 (ABCD2 WT) [µM]
Cc1cc(C)c(Oc2nc(-n3cc(C)cn3)ccc2NS(C)(=O)=O)c(C)c1 [Compound I-11]	> 25	≥ 25	1 to 10
Cc1cc(C)c(Oc2nc(-n3cnc(C)c3)ccc2NS(C)(=O)=O)c(C)c1 [Compound I-12]	> 25	< 25	< 1
Cc1cc(C)c(Oc2nc(-c3cnn(C)c3C)ccc2NS(C)(=O)=O)c(C)c1 [Compound I-13]	1 to 10	1 to 10	> 25
Cc1cc(C)c(Oc2nc(-c3cnn(C)c3)ccc2NS(C)(=O)=O)c(C)c1 [Compound I-14]	> 25	≥ 25	1 to 10
Cc1cc(C)c(Oc2nc(N3CCN(C(=O)C4(C)CC4)CC3)ccc2NS(C)(=O)=O)c(C)c1 [Compound I-15]	1 to 10	1 to 10	> 25
COC(=O)N1CCN(c2ccc(NS(C)(=O)=O)c(Oc3c(C)cc(C)cc3C)n2)CC1 [Compound I-16]	> 25	≥ 25	10 to 25
CC(=O)N1CCN(c2ccc(NS(C)(=O)=O)c(Oc3c(C)cc(C)cc3C)n2)CC1 [Compound I-17]	> 25	≥ 25	1 to 10
Cc1nc(Oc2nc(-c3cncc(C#N)c3)ccc2NS(C)(=O)=O)c(C)s1 [Compound I-107]	> 25	≥ 25	< 1
Cc1cc(Oc2nc(-c3cncc(C#N)c3)ccc2NS(C)(=O)=O)nn1C [Compound I-113]	< 25	< 25	< 25
Cc1nn(C)c(C)c1Oc1nc(-c2cncc(C#N)c2)ccc1NS(C)(=O)=O [Compound I-115]	< 25	< 1	< 1
Cc1cc(C)c(Oc2nc(-c3cncc(S(C)(=N)=O)c3)ccc2NS(C)(=O)=O)c(C)n1 (stereo not drawn) [Compound I-116]	> 25	≥ 25	> 25
Cc1nc(C2CC2)c(Cl)cc1Oc1nc(-c2cncc(C#N)c2)ccc1NS(C)(=O)=O [Compound I-120]	< 1	< 25	1 to 10
Cc1cc(Oc2nc(-c3cncc(C#N)c3)ccc2NS(C)(=O)=O)c(C)nc1C1CC1 [Compound I-127]	1 to 10	< 1	> 25
Cc1cc(OC(F)(F)F)nc(C)c1Oc1nc(-c2cncc(C#N)c2)ccc1NS(C)(=O)=O [Compound I-131]	< 1	< 1	< 1
Cc1cc(OC2CC2)nc(C)c1Oc1nc(-c2cncc(C#N)c2)ccc1NS(C)(=O)=O [Compound I-132]	< 1	< 1	< 1
Cc1nc(C)c(Oc2nc(-c3cncc(C#N)c3)ccc2NS(C)(=O)=O)c(C2CC2)n1 [Compound I-165]	1 to 10	1 to 10	1 to 10
Cc1cc(C)c(Oc2nc(-c3cncc(C#N)c3)ccc2N(C)S(C)(=O)=O)c(C)n1 [Compound I-166]	1 to 10	1 to 10	1 to 10
CNS(=O)(=O)c1ccc(-c2cncc(C#N)c2)nc1Oc1c(C)nc(C(F)(F)F)nc1C [Compound I-167]	1 to 10	1 to 10	1 to 10
CNS(=O)(=O)c1ccc(-c2cncc(C#N)c2)nc1Oc1c(C)cc(C(F)(F)F)nc1C [Compound I-168]	1 to 10	1 to 10	1 to 10
Cc1nc(N2CC(S(C)(=O)=O)C2)nc(C)c1Oc1nc(-c2cncc(C#N)c2)ccc1NS(C)(=O)=O [Compound I-169]	1 to 10	1 to 10	10 to 25

Structure (SMILES)	EC50 (ABCA4 P1380L) [µM]	EC50 (ABCB4 WT) [µM]	EC50 (ABCD2 WT) [µM]
Cc1nc(N2CC(F)(F)C2)nc(C)c1Oc1nc(-c2cncc(C#N)c2)ccc1NS(C)(=O)=O [Compound I-170]	< 1	< 1	1 to 10
Cc1cc(C2CC2)c(Oc2nc(-c3cncc(C#N)c3)ccc2NS(C)(=O)=O)c(C)n1 [Compound I-171]	< 1	< 1	< 1
Cc1cc(C)c(Oc2nc(-c3cncc(C#N)c3)ccc2NS(=O)(=O)C2(C)CC2)c(C)n1 [Compound I-172]	< 1	< 1	> 25
Cc1nc(C(F)F)nc(C)c1Oc1nc(-c2cncc(C#N)c2)ccc1NS(C)(=O)=O [Compound I-173]	< 1	< 1	< 1
Cc1nc(C2COC2)nc(C)c1Oc1nc(-c2cncc(C#N)c2)ccc1NS(C)(=O)=O [Compound I-174]	1 to 10	≥ 25	1 to 10
Cc1nc(C(F)F)nc(C)c1Oc1nc(-c2cncc(Cl)c2)ccc1NS(C)(=O)=O [Compound I-175]	< 1	< 1	> 25
Cc1cc(C)c(Oc2nc(-c3cncc(C#N)c3)ccc2NS(C)(=O)=O)c(OC2CC2)n1 [Compound I-176]	< 1	< 1	< 1
Cc1cc(N2CCC2)nc(C)c1Oc1nc(-c2cncc(C#N)c2)ccc1NS(C)(=O)=O [Compound I-177]	< 1	< 1	> 25
Cc1nc(OC2CC2)c(C(F)(F)F)cc1Oc1nc(-c2cncc(C#N)c2)ccc1NS(C)(=O)=O [Compound I-178]	> 25	< 1	1 to 10
Cc1nc(C2CC2)c(C(F)F)cc1Oc1nc(-c2cncc(C#N)c2)ccc1NS(C)(=O)=O [Compound I-179]	> 25	< 1	< 1
Cc1cc(N2CC(F)(F)C2)nc(C)c1Oc1nc(-c2cncc(C#N)c2)ccc1NS(C)(=O)=O [Compound I-180]	> 25	< 1	> 25
Cc1nc(C2CCC2)nc(C)c1Oc1nc(-c2cncc(C#N)c2)ccc1NS(C)(=O)=O [Compound I-181]	< 1	< 1	> 25
Cc1cc(Oc2nc(-c3cncc(C#N)c3)ccc2NS(C)(=O)=O)c(C)nc1C(F)(F)F [Compound I-182]	< 1	< 1	< 1
Cc1nc(C2CC2)nc(C)c1Oc1nc(-c2cncc(C#N)c2)ccc1NS(C)(=O)=O [Compound I-183]	< 1	< 1	< 1
Cc1nc(C2CC2)c(C(F)(F)F)cc1Oc1nc(-c2cncc(C#N)c2)ccc1NS(C)(=O)=O [Compound I-184]	< 1	< 1	< 1
Cc1cc(C)c(Oc2nc(-c3cncc(N4CC(F)C4)c3)ccc2NS(C)(=O)=O)c(C)n1 [Compound I-185]	< 1	< 1	< 1
Cc1cc(C)c(Oc2nc(-c3ccn(C)c(=O)c3)ccc2NS(C)(=O)=O)c(C)n1 [Compound I-186]	> 25	≥ 25	> 25
Cc1cc(C)c(Oc2nc(-c3cc[nH]c(=O)c3)ccc2NS(C)(=O)=O)c(C)n1 [Compound I-187]	> 25	≥ 25	> 25
COc1cc(-c2ccc(NS(C)(=O)=O)c(Oc3c(C)cc(C)nc3C)n2)ccn1 [Compound I-188]	1 to 10	≥ 25	1 to 10

— patent publication US20250228835A1, “PYRIDINYLOXYPYRIDINES AND RELATED COMPOUNDS AND THEIR USE IN TREATING MEDICAL CONDITIONS” (Rectify Pharmaceuticals, Inc., priority 2024, published 2025)
